The source of these data is US20210322507A1, “GENOTYPE-DIRECTED LOCAL DELIVERY OF TARGETED THERAPEUTICS” (Massachusetts Institute of Technology, priority 2017, published 2021).

Structures are written as SMILES.

For data set [1] the following is noted: given systemically; cited from earlier work.
Data set [2] can be described thus: Pharmacokinetic analysis of GMX-1778 after oral gavage (plasma and brain, UPLC-ESI-MS). The format is in vivo, SCID mice. Particulars: 250 mg/kg oral gavage. The procedure: GMX-1778 was dissolved in 20% captisol (CyDex) and administered by oral gavage to 6-7 week old female SCID mice at a dose of 250 mg/kg. Vehicle treated animals received similar volume of 5% dextrose prepared in 20% captisol by oral gavage. GMX-1778 treated animals were sacrificed at 30 minutes, 2 hours, 6 hours and 24 hours following treatment. Blood was collected by cardiac puncture and centrifuged at 6000 g for 5 minutes. The brain was homogenized in 3 volumes of PBS with 5% bovine serum albumin (Sigma-Aldrich). GMX-1778 was then extracted into the organic phase by a modified protocol described previously^31. Briefly, 25 μL plasma or 100 μL brain homogenate was added to 10 μL FK-866 (250 ng/mL prepared in methanol). Then, 800 μL ethyl acetate was added and the sample was vortexed and mixed overnight. The sample was then centrifuged at 3000 rpm for 10 minutes and 600 μL supernatant was transferred to a new tube. The sample was dried overnight and reconstituted in 200 μL acetonitrile. Stock solutions of GMX-1778 and an internal standard FK-866 were prepared in acetonitrile at a concentration of 500 μg/mL. A10-point calibration curve ranging from 5 to 5000 ng/mL was prepared. Quality control samples were prepared by a similar procedure using an independent stock solution at three concentrations (25, 250, and 2500 ng/mL). For analysis, 2.5 μL sample was injected on the UPLC-ESI-MS system.
Ultra-performance LC (UPLC) separation was carried out on a Waters UPLC aligned with a Waters Xevo TQ-SMS mass spectrometer (Waters Ltd.). MassLynx 4.1 software was used for data acquisition and analysis. LC separation was performed on an Acquity UPLC High Strength Silica Trifunctional C18 (50 mm×2.1 mm; particle size, 1.8 μm) at 50° C. The mobile phase consisted of acetonitrile, 0.1% formic acid, 10 mM ammonium formate solution flowed at a rate of 0.6 mL/minute using a time and solvent gradient composition. The initial mobile phase composition (100%) was held for 1.0 minutes, and then changed to 20% over the next 0.25 minutes. […]

Data set [3] can be described thus: Systemic toxicity analysis of oral GMX-1778. Format: in vivo, SCID mice. The procedure:
Adult SCID female mice of 6-7 weeks were administered GMX-1778 daily for 5 days by oral gavage (250 mg/kg). Body weights were recorded prior to administration and at the end of the study. Blood samples were analyzed for complete blood count by HemaTrue (Heska Lab Systems) and chemistry panel by DriChem (Heska Lab Systems). Liver and heart were fixed in formalin and analyzed for histologic toxicity by hematoxylin and eosin (H&E) staining. Eyes were removed by enucleation and placed in Davidson's fixative for 24 hours prior to formalin and subsequently analyzed for toxicity on H&E slides.

In the case of `O=C(/C=C/c1cccnc1)NCCCCC1CCN(C(=O)c2ccccc2)CC1` [FK866], the “Blood-brain barrier penetration / brain accumulation” value in data set [1] is given as “does not measurably accumulate in the brain parenchyma”.

With `N#CN=C(NCCCCCCOc1ccc(Cl)cc1)Nc1ccncc1` [GMX-1778], the “Detectability of drug in brain within 24 hours” value in data set [2] (24 hours) is given as “no longer detectable”. In data set [2] (SCID mice, at 2 hours), the “Maximum (peak) drug concentration in brain” value is 3.0 ± 1.5 µM and the “Maximum (peak) drug concentration in plasma” value turned out to be 18.0 ± 3.6 µM. Also, in data set [3] (250 mg/kg oral GMX-1778), the “Liver histology (H&E)” value is recorded as “eosinophilic cholangitis”. For the same molecule, in data set [3] (250 mg/kg oral daily for 5 days, control 9.2±0.5 g/dL), the “Hemoglobin (anemia)” value was 6.7 ± 0.8 g/dL. In addition, in data set [3] (250 mg/kg oral daily for 5 days, control 15±0.5 mg/dL), the “Uremia (chemistry panel)” value came to 20.5 ± 1.9 mg/dL. Moreover, the “Body weight after administration (weight loss)” value in data set [3] (250 mg/kg oral daily for 5 days, control dextrose 21.8±0.6 g) amounted to 17.9 ± 1.1 g. Also, the “Blood-brain barrier penetration / brain accumulation” value in data set [1] is recorded as “partially blood-brain barrier penetrant”.
